Test [1] relates to B-Raf^V600E mutant COLO205 colon cancer cell. Nature of the test: Cell proliferation assay (CELLTITER 96), COLO205. It counts as cell-based. The following applies: Homo sapiens, COLO 205; COLO205, 72 hours; read-out: Cytotoxicity (IC50 Ranking) COLO205 (B-Raf^V600E). Here is the method: (§1) Inhibition of cell growth by compounds was measured using CELLTITER 96® assay. The cytotoxicity of compounds was evaluated in B-Raf^V600E mutant A375 melanoma cell, B-Raf^V600E mutant COLO205 colon cancer cell, and SK-MEL-2 melanoma cell with wild type B-Raf (B-Raf^wt) and NRASQ^Q61R mutation. A375 and COLO205 cell line were cultured in DMEM containing 10% FCS and incubated at 37° C. in 5% CO2 atmosphere. SK-MEL-2 cell line was cultured in MEM containing 10% FCS and incubated at 37° C. in 5% CO2 atmosphere. A375, COLO205 and SK-MEL-2 cell were seeded into 96-well plates at 2000, 2000, and 4000 cells/well, respectively, and allowed to adhere for overnight. Then, these seeded cells were treated with increasing concentrations of the test compounds and incubated for another 72 hours. At the end of the incubation, CELLTITER 96® Aqueous One Solution Reagent (Promega) was added and incubated for 4 hours. Cell viability was determined by measuring absorbance at 490 nm using EMAX® microplate reader (Molecular Devices).
(§2) The 50% inhibitory concentration (IC50) value was calculated by plotting the percentage of growth inhibition against the concentration of compound, using GraphPad Prism5 software for curve fitting.

The next test has as its target T1, B-Raf^V600E kinase (Homo sapiens, UniProt P15056, V600E).
T1 construct: purchased Upstate Biotechnology
Nature of the test: B-Raf V600E kinase assay ([33P] incorporation into MEK1 K97R). It counts as biochemical. The following applies: recombinant B-Raf^V600E, 8 μM ATP, 30 min, 30° C.; read-out: IC50 ranking against B-Raf^V600E kinase. Here is the method: (§3) Inhibition of kinase activity by a test compound disclosed herein was estimated by quantifying the amount of [^33P] incorporation of a substrate in the presence of the test compound. Standard assay conditions were 5 ng of recombinant B-Raf^V600E kinase (Upstate Biotechnology) with 500 ng MEK1 (K97R) in assay buffer (8 μM ATP, 0.5 μCi [^33P]ATP (specific activity 3000 Ci/mmol, PerkinElmer), 50 mM Tris/HCl (pH 7.5), and 1 mM EGTA, 1 mM Na3VO4, 1% 2-mercaptoethanol, 0.1% Brij 35, and 0.2 mg/ml BSA), and the test compound (diluted with 4% DMSO) or DMSO alone (as a control) in a final volume of 25 μL. Reactions were incubated at 30° C. for 30 min and stopped by adding 3% phosphoric acid, harvested onto a 96-well GF/B UniFilter (PerkinElmer) using a unifilter harvester (PerkinElmer), and counted with a TopCount microplate scintillation counter (PerkinElmer). The IC50 values of inhibitors were determined after carrying out assays at 3-fold serially diluted concentrations of each compound in duplication. The results were analyzed using linear regression software (GraphPad Prism 4; GraphPad Software Inc.).

In a further test the target is T2, B-Raf kinase (Homo sapiens, UniProt P15056).
T2 construct: purchased Upstate Biotechnology
T2 sequence (P15056 whole entry): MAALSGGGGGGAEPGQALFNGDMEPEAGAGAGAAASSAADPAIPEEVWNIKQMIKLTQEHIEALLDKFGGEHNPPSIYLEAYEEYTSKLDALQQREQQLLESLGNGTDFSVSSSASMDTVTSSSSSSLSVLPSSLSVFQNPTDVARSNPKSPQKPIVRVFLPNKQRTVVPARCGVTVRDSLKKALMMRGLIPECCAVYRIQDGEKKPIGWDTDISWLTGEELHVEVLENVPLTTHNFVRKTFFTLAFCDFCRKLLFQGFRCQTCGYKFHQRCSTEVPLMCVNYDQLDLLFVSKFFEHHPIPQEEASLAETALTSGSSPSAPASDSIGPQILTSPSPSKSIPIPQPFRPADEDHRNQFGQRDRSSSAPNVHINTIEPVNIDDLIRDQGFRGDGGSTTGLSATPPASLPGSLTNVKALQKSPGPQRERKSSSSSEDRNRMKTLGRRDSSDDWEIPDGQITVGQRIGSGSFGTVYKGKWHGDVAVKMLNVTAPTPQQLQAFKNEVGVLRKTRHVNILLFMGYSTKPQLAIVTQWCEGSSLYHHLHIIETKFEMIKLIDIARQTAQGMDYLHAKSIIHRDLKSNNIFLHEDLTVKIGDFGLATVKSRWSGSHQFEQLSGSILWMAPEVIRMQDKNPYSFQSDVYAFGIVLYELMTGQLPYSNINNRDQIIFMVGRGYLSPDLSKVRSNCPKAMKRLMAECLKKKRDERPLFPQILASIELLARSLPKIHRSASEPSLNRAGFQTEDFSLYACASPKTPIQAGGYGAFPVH
Nature of the test: B-Raf kinase assay ([33P] incorporation into MEK1 K97R). It counts as biochemical. The following applies: recombinant B-Raf, 8 μM ATP, 30 min, 30° C.; read-out: IC50 ranking against B-Raf kinase. Here is the method:
Inhibition of kinase activity by a test compound disclosed herein was estimated by quantifying the amount of [^33P] incorporation of a substrate in the presence of the test compound. Standard assay conditions were 5 ng of recombinant B-Raf kinase (Upstate Biotechnology) with 500 ng MEK1(Map-erk kinase; K97R) in the assay buffer (8 μM ATP, 0.5 μCi [^33P]ATP (specific activity 3000 Ci/mmol, PerkinElmer), 50 mM Tris/HCl (pH 7.5), and 1 mM EGTA, 1 mM Na3VO4, 1% 2-mercaptoethanol, 0.1% Brij 35, and 0.2 mg/ml BSA) in a final volume of 25 μL. Reactions were incubated at 30° C. for 30 min and stopped by adding 3% phosphoric acid, harvested onto a 96-well GF/B UniFilter (PerkinElmer) using a unifilter harvester (PerkinElmer), and counted with a TopCount microplate scintillation counter (PerkinElmer). The IC50 values of inhibitors were determined after carrying out assays at 3-fold serially diluted concentrations of each compound in duplication. The results were analyzed using linear regression software (GraphPad Prism 4; GraphPad Software Inc.).

The test system of test [2] is SK-MEL-2 melanoma cell with wild type B-Raf (B-Raf^wt) and NRAS^Q61R mutation. Nature of the test: Cell proliferation assay (CELLTITER 96), SK-MEL-2. As to conditions: Homo sapiens; SK-MEL-2, 72 hours; given as bound; read-out: Cytotoxicity (IC50 Ranking) SK-MEL-2 (NRAS^Q61R, B-Raf^wt). It counts as cell-based. Here is the method:
as §1, §2

Test [3] has as its system B-Raf^V600E mutant A375 melanoma cell. Kind of test: Cell proliferation assay (CELLTITER 96), A375. It counts as cell-based. The following applies: Homo sapiens, A-375; A375, 72 hours; read-out: Cytotoxicity (IC50 Ranking) A375 (B-Raf^V600E). As to the method:
as §1, §2

Another test concerns the target T3, C-Raf kinase (Homo sapiens, UniProt P04049).
T3 construct: purchased Upstate Biotechnology
Kind of test: C-Raf kinase assay ([33P] incorporation into MEK1 K97R). It counts as biochemical. The following applies: recombinant C-Raf, 8 μM ATP, 30 min, 30° C.; read-out: IC50 ranking against C-Raf kinase. Here is the method: as §3, with “were 2” for “were 5”, “recombinant C-Raf” for “recombinant B-Raf^V600E”, “ng MEK1(K97R)” for “ng MEK1 (K97R)”

T1 sequence (P15056 whole entry V600E): as the sequence (P15056 whole entry) above, with V600E counted along it
T3 sequence (P04049 whole entry): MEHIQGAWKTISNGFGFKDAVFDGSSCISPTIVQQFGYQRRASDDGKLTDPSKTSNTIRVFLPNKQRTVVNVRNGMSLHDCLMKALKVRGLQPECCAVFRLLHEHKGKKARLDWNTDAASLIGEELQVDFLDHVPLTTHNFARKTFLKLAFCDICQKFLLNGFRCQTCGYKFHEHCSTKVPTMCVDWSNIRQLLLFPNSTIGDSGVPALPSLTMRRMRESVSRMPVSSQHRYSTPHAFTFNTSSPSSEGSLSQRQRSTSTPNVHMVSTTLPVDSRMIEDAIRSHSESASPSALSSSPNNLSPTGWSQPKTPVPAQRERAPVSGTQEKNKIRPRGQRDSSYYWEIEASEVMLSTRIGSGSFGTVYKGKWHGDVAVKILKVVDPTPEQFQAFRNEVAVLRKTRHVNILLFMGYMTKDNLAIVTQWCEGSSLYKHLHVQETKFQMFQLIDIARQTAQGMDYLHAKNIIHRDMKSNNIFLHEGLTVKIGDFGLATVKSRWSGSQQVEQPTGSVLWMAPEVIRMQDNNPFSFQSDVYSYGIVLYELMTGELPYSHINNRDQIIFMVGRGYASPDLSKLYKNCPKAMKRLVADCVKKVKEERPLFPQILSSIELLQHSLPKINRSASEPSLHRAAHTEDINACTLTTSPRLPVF

For orientation: IC50 means the concentration that gives 50% inhibition. In the case of `CCCS(=O)(=O)Nc1ccc(C)c(Nc2ccc3ncc(OC)nc3c2C#N)c1` [compound 40, N-(3-(5-cyano-3-methoxyquinoxalin-6-ylamino)-4-methylphenyl)propane-1-sulfonamide], the 50% inhibitory concentration (IC50) is 1 to 10 µM in test [1]; 0.3 to 1 µM at B-Raf^V600E kinase; 0.3 to 1 µM on B-Raf kinase; more than 10 µM in test [2]; 1 to 10 µM in test [3]; 0.3 to 1 µM on C-Raf kinase.

In the case of `CCCS(=O)(=O)Nc1ccc(F)c(Nc2ccc3ncc(OC)nc3c2C=O)c1F` [compound 29, N-(2,4-difluoro-3-(5-formyl-3-methoxyquinoxalin-6-ylamino)phenyl)propane-1-sulfonamide], the IC50 in test [1] is less than 0.3 µM; on B-Raf^V600E kinase, less than 0.3 µM; on B-Raf kinase it was less than 0.3 µM; in test [2], more than 10 µM; in test [3], less than 0.3 µM; at C-Raf kinase, less than 0.3 µM.

Take `CCCS(=O)(=O)Nc1ccc(F)c(Nc2ccc3ncc(Nc4c(F)ccc(NS(=O)(=O)CCC)c4F)nc3c2)c1F` [compound 1, N1-3-[(3-{2,6-difluoro-3-[(propylsulfonyl)amino]anilino}-6-quinoxalinyl)amino]-2,4-difluorophenyl-1-propanesulfonamide]: the half-inhibitory concentration (IC50) in test [1] is 1 to 10 µM; at B-Raf^V600E kinase it was less than 0.3 µM; on B-Raf kinase it was less than 0.3 µM; in test [2] it was more than 10 µM; in test [3], 1 to 10 µM; on C-Raf kinase, less than 0.3 µM.

Consider `CCCS(=O)(=O)Nc1ccc(F)c(Nc2ccc3ncc(OC)nc3c2C#N)c1Cl` [compound 46, N-(2-chloro-3-(5-cyano-3-methoxyquinoxalin-6-ylamino)-4-fluorophenyl)propane-1-sulfonamide], for which the IC50 was less than 0.3 µM in test [1]; less than 0.3 µM at B-Raf^V600E kinase; less than 0.3 µM at B-Raf kinase; more than 10 µM in test [2]; less than 0.3 µM in test [3]; less than 0.3 µM on C-Raf kinase.

`CCCS(=O)(=O)Nc1cccc(Nc2ccc3ncc(OC)nc3c2C#N)c1C#N` [compound 50, N-(2-cyano-3-(5-cyano-3-methoxyquinoxalin-6-ylamino)phenyl)propane-1-sulfonamide]: the IC50 in test [1] was less than 0.3 µM; on B-Raf^V600E kinase, less than 0.3 µM; at B-Raf kinase it was less than 0.3 µM; in test [2], more than 10 µM; in test [3] it was less than 0.3 µM; at C-Raf kinase, less than 0.3 µM.

Take `CCCS(=O)(=O)Nc1ccc(F)c(Nc2ccc3ncc(N4CCOCC4)nc3c2C#N)c1Cl` [compound 48, N-(2-chloro-3-(5-cyano-3-morpholinoquinoxalin-6-ylamino)-4-fluorophenyl)propane-1-sulfonamide]: the 50% inhibitory concentration (IC50) in test [1] was less than 0.3 µM; on B-Raf^V600E kinase, less than 0.3 µM; on B-Raf kinase, less than 0.3 µM; in test [2] it was more than 10 µM; in test [3] it was less than 0.3 µM; at C-Raf kinase it was less than 0.3 µM.

On to `CN(C)c1cnc2ccc(Nc3cc(NS(=O)(=O)c4ccccc4)ccc3F)c(C#N)c2n1` [compound 37, N-(3-(5-cyano-3-(dimethylamino)quinoxalin-6-ylamino)-4-fluorophenyl)benzenesulfonamide], for which the half-inhibitory concentration (IC50) was 1 to 10 µM in test [1]; less than 0.3 µM on B-Raf^V600E kinase; less than 0.3 µM at B-Raf kinase; more than 10 µM in test [2]; 1 to 10 µM in test [3]; less than 0.3 µM on C-Raf kinase.

For the compound `CCCS(=O)(=O)Nc1cccc(Nc2ccc3ncc(N4CCOCC4)nc3c2C#N)c1C` [compound 38, N-(3-(5-cyano-3-morpholinoquinoxalin-6-ylamino)-2-methylphenyl)propane-1-sulfonamide], the IC50 is less than 0.3 µM in test [1]; less than 0.3 µM on B-Raf^V600E kinase; less than 0.3 µM at B-Raf kinase; more than 10 µM in test [2]; less than 0.3 µM in test [3]; less than 0.3 µM at C-Raf kinase.

Consider `CCCS(=O)(=O)Nc1ccc(F)c(Nc2ccc3ncc(Nc4c(F)cccc4F)nc3c2)c1F` [compound 2, N1-(3-{[3-(2,6-difluoroanilino)-6-quinoxalinyl]amino}-2,4-difluorophenyl)-1-propanesulfonamide], for which the IC50 in test [1] was 0.3 to 1 µM; on B-Raf^V600E kinase it was less than 0.3 µM; on B-Raf kinase, less than 0.3 µM; in test [2] it was more than 10 µM; in test [3], 0.3 to 1 µM; at C-Raf kinase, less than 0.3 µM.

Turning to `CCCS(=O)(=O)Nc1ccc(C)c(Nc2ccc3ncc(N4CCOCC4)nc3c2C#N)c1` [compound 39, N-(3-(5-cyano-3-morpholinoquinoxalin-6-ylamino)-4-methylphenyl)propane-1-sulfonamide], the IC50 was 1 to 10 µM in test [1]; 0.3 to 1 µM at B-Raf^V600E kinase; 0.3 to 1 µM at B-Raf kinase; more than 10 µM in test [2]; 1 to 10 µM in test [3]; 1 to 10 µM at C-Raf kinase.

On to `CCCS(=O)(=O)Nc1ccc(F)c(Nc2ccc3ncc(OCCOC)nc3c2[N+](=O)[O-])c1F` [compound 7, N1-(2,4-difluoro-3-[3-(2-methoxyethoxy)-5-nitro-6-quinoxalinyl]aminophenyl)-1-propanesulfonamide], for which the half-maximal inhibitory concentration (IC50) is less than 0.3 µM in test [1]; less than 0.3 µM on B-Raf^V600E kinase; less than 0.3 µM on B-Raf kinase; more than 10 µM in test [2]; less than 0.3 µM in test [3]; less than 0.3 µM on C-Raf kinase.

Turning to `CS(=O)(=O)Nc1ccc(F)c(Nc2ccc3ncc(N4CCOCC4)nc3c2C#N)c1` [compound 26, N-(3-(5-cyano-3-morpholinoquinoxalin-6-ylamino)-4-fluorophenyl)methanesulfonamide], the 50% inhibitory concentration (IC50) was 1 to 10 µM in test [1]; 1 to 10 µM on B-Raf^V600E kinase; 1 to 10 µM at B-Raf kinase; more than 10 µM in test [2]; 1 to 10 µM in test [3]; 1 to 10 µM on C-Raf kinase.

Source of the values: patent publication US10745360B2, “Quinoxaline compounds, method for preparing the same and use thereof” (Development Center for Biotechnology, priority 2014, dated 2020).
